The values that follow come from PubChem BioAssay (NCI).

Among the test systems are BT-549 breast; HCC-2998 colon; MCF7 breast; NCI-H522 lung; OVCAR-4 ovarian; OVCAR-5 ovarian; RXF 393 renal; SK-OV-3 ovarian; SNB-75 CNS; TK-10 renal.
Test in all cases: growth of human tumour cells (NCI), 48 h

Each structure is given as a SMILES string.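 Method: 48-hour compound exposure of cells in 96-well plates, five concentrations, linear interpolation of endpoints. GI50: concentration for 50% inhibition of growth. TGI marks complete inhibition of growth.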

`COc1cc2c(cc1[N+](=O)[O-])C(=O)C(Br)(Br)CCC2`: the TGI in the assay on BT-549 breast was 4.97 µM; in the assay on HCC-2998 colon, 32.5 µM; in the assay with MCF7 breast, 5.33 µM; in the assay with NCI-H522 lung, 2.37 µM; in the assay with OVCAR-4 ovarian, 15.7 µM; in the assay with OVCAR-5 ovarian, 4.42 µM. Moreover, the TGI in the assay with RXF 393 renal worked out at 4.51 µM; with SK-OV-3 ovarian, 9.41 µM; in the assay on SNB-75 CNS, 25.8 µM; in the assay on TK-10 renal, 9.72 µM.

In the case of `Fc1ccc(Nc2nc3nonc3nc2Nc2ccc(I)cc2)cc1`, the GI50 in the assay on BT-549 breast is 0.266 µM; in the assay on HCC-2998 colon, 0.425 µM; in the assay on MCF7 breast, 0.277 µM; with NCI-H522 lung, 0.192 µM; with OVCAR-4 ovarian it was 0.283 µM; in the assay with OVCAR-5 ovarian, 0.373 µM. Further, the GI50 is 0.237 µM in the assay on RXF 393 renal, 0.269 µM in the assay on SK-OV-3 ovarian, 0.263 µM in the assay on SNB-75 CNS and 0.315 µM with TK-10 renal. For the same molecule, the TGI in the assay on BT-549 breast was 2.02 µM; in the assay on HCC-2998 colon, 9.24 µM; with MCF7 breast, 4.08 µM; in the assay on NCI-H522 lung, 0.693 µM; in the assay with OVCAR-4 ovarian, 64.5 µM; with OVCAR-5 ovarian, 20.2 µM. In addition, the TGI in the assay on RXF 393 renal turned out to be 0.817 µM; in the assay with SK-OV-3 ovarian it was 0.962 µM; with SNB-75 CNS, 11.7 µM; in the assay on TK-10 renal it was 2.18 µM.

On to `Cc1[nH]nc(C(=O)N/N=C/c2ccccc2Cl)c1N=NN(C)C`, for which the TGI with BT-549 breast is 12.8 µM; in the assay with HCC-2998 colon it was > 100 µM; in the assay with MCF7 breast, > 100 µM; with NCI-H522 lung, > 100 µM; in the assay with OVCAR-4 ovarian, > 100 µM; with OVCAR-5 ovarian, > 100 µM. The TGI in the assay with RXF 393 renal, with SK-OV-3 ovarian, in the assay on SNB-75 CNS and in the assay with TK-10 renal was > 100 µM each time.

Regarding `O=C(NN1C(=O)CSC1c1c(Cl)cccc1Cl)C(O)c1ccccc1` (stereo not given), the GI50 is 80 µM with BT-549 breast; 64.3 µM in the assay on HCC-2998 colon; 44.2 µM in the assay with MCF7 breast; 25.7 µM in the assay with NCI-H522 lung; 29.1 µM in the assay on OVCAR-4 ovarian; > 100 µM in the assay on OVCAR-5 ovarian. The GI50 in the assay with RXF 393 renal is 29.3 µM; in the assay with SK-OV-3 ovarian it was > 100 µM; in the assay with SNB-75 CNS, 32.4 µM; in the assay with TK-10 renal, 78.9 µM. Moreover, the TGI with BT-549 breast, in the assay with HCC-2998 colon, in the assay with MCF7 breast, in the assay with NCI-H522 lung, with OVCAR-4 ovarian and in the assay with OVCAR-5 ovarian was > 100 µM throughout. Moreover, the TGI in the assay with RXF 393 renal, in the assay on SK-OV-3 ovarian, in the assay with SNB-75 CNS and in the assay with TK-10 renal was > 100 µM in each case.

For `Nc1n[nH]c2ccc([C@@H]3Nc4ccc5cn[nH]c5c4[C@H]4C5CCC(C5)[C@@H]34)cc12` (stereo not given in full), the GI50 with BT-549 breast was 0.755 µM; in the assay on HCC-2998 colon, 0.962 µM; in the assay with MCF7 breast, 0.347 µM; with NCI-H522 lung, 0.385 µM; in the assay on OVCAR-4 ovarian, 2.63 µM; with OVCAR-5 ovarian it was 1.14 µM. Also, the GI50 was 0.236 µM in the assay on RXF 393 renal, 0.831 µM in the assay on SK-OV-3 ovarian, 0.171 µM in the assay on SNB-75 CNS and 15.1 µM in the assay on TK-10 renal. In addition, the TGI was > 65.8 µM in the assay with BT-549 breast; > 50.2 µM with HCC-2998 colon; > 76.8 µM in the assay with MCF7 breast; 54.6 µM in the assay on NCI-H522 lung; > 100 µM with OVCAR-4 ovarian; 99.3 µM in the assay with OVCAR-5 ovarian. The TGI with RXF 393 renal was 0.724 µM; in the assay with SK-OV-3 ovarian, > 100 µM; with SNB-75 CNS, 3.59 µM; in the assay on TK-10 renal, > 100 µM.

For the molecule `COc1cc(C)[nH]c(=O)c1CNC(=O)c1c(C)n([C@H](C)C2CCN(CC(F)(F)F)CC2)c2ccccc12`, the GI50 in the assay with BT-549 breast was 33.6 µM; with HCC-2998 colon it was > 100 µM; in the assay with MCF7 breast, 25.7 µM; in the assay on NCI-H522 lung, 80.3 µM; with OVCAR-4 ovarian, 41.7 µM; in the assay with OVCAR-5 ovarian it was > 100 µM. Besides, the GI50 in the assay with RXF 393 renal was 21.7 µM; in the assay with SK-OV-3 ovarian, 51.8 µM; in the assay on SNB-75 CNS, 36.1 µM; in the assay with TK-10 renal, 88.5 µM. The TGI with BT-549 breast, with HCC-2998 colon, with MCF7 breast, in the assay with NCI-H522 lung, in the assay with OVCAR-4 ovarian and with OVCAR-5 ovarian was > 100 µM each time. Further, the TGI was 99.5 µM in the assay on RXF 393 renal, > 100 µM in the assay on SK-OV-3 ovarian, > 100 µM with SNB-75 CNS and > 100 µM in the assay with TK-10 renal.

On to `O=c1/c(=C\c2ccc(Br)cc2)sc2n1C(c1ccc(Br)cc1)C1=C(N=2)c2ccc3ccccc3c2OCC1` (stereo not given), for which the GI50 in the assay with BT-549 breast, in the assay on HCC-2998 colon, with MCF7 breast, in the assay on NCI-H522 lung, with OVCAR-4 ovarian and in the assay with OVCAR-5 ovarian was > 100 µM each time. Moreover, the GI50 with RXF 393 renal, in the assay on SK-OV-3 ovarian, with SNB-75 CNS and in the assay on TK-10 renal was > 100 µM in each case. In addition, the TGI in the assay with BT-549 breast, with HCC-2998 colon, with MCF7 breast, in the assay on NCI-H522 lung, in the assay on OVCAR-4 ovarian and with OVCAR-5 ovarian was > 100 µM throughout. The TGI in the assay on RXF 393 renal, in the assay with SK-OV-3 ovarian, with SNB-75 CNS and with TK-10 renal was > 100 µM throughout.

Turning to `Cc1cc(C)c2c(c1)N(C)c1ncnc(-n3cnc4cc(C)ccc43)c1CC2C` (stereo not given), the GI50 is 2.93 µM with BT-549 breast; 4.05 µM in the assay on HCC-2998 colon; 3.42 µM in the assay with MCF7 breast; 2.07 µM in the assay with NCI-H522 lung; 4.18 µM in the assay on OVCAR-4 ovarian; 5.52 µM with OVCAR-5 ovarian. Moreover, the GI50 was 2.66 µM in the assay with RXF 393 renal, 4.41 µM with SK-OV-3 ovarian, 2.8 µM in the assay on SNB-75 CNS and 7.37 µM in the assay on TK-10 renal. In addition, the TGI in the assay on BT-549 breast is 12 µM; in the assay on HCC-2998 colon, 61.8 µM; with MCF7 breast it was > 100 µM; with NCI-H522 lung, 6.53 µM; with OVCAR-4 ovarian, 47.4 µM; in the assay with OVCAR-5 ovarian, 24.4 µM. The TGI in the assay with RXF 393 renal is 9.06 µM; in the assay with SK-OV-3 ovarian, > 100 µM; in the assay with SNB-75 CNS, 13.2 µM; in the assay on TK-10 renal, > 100 µM.
